# Reference: the RepoRT retention time repository
# Assay: HILIC, HILICON iHILIC-(P) Classic, HILIC, PEEK, 100 × 2.1 mm, 5 µm, 40 °C, 0.15 mL/min, estimated dead time 1.5 min; A: water + 20 mM ammonium carbonate + 5 µM medronic acid; B: 10% water + 90% acetonitrile + 2 mM ammonium carbonate + 0.5 µM medronic acid; gradient (min/%B) 0/95 18/55 19/20 22/20 22.5/95 24/95 26/95
# Conditions: stereoisomer not certain
row,LC retention time [min],SMILES
1,12.3,O=C(CO)C(O)C(O)C(O)COP(=O)(O)O (centres undefined) [Fructose 6-phosphate]
2,3.83,Nc1ncnc2c1ncn2C1OC(CO)C(O)C1O (centres undefined) [Adenosine]
3,11.1,O=P(O)(O)OCC(O)CO (centres undefined) [Glycerol-3-phosphate]
4,9.88,NC(CCC(=O)O)C(=O)O (centres undefined) [Glutamic acid]
5,12,CC(=O)NC1C(OP(=O)(O)OP(=O)(O)OCC2OC(n3ccc(=O)[nH]c3=O)C(O)C2O)OC(CO)C(O)C1O (centres undefined) [UDP-GlcNAc]
6,14.5,NC(=O)c1ccc[n+](C2OC(COP(=O)(O)OP(=O)(O)OCC3OC(n4cnc5c(N)ncnc54)C(OP(=O)(O)O)C3O)C(O)C2O)c1 (centres undefined) [NADP]
7,16.3,"O=P(O)(O)OCC1OC(O)(COP(=O)(O)O)C(O)C1O (centres undefined) [Fructose-1,6-bisphosphate]"
8,11.9,O=C(O)CC(O)C(=O)O (centres undefined) [Malic Acid]
9,18.7,NCCCCC(N)C(=O)O (centres undefined) [Lysine]
10,14.6,C=C(OP(=O)(O)O)C(=O)O [PEP]
11,12.3,O=P(O)(O)OC1OC(CO)C(O)C(O)C1O (centres undefined) [Glucose-1-phosphate]
12,13,O=C(O)CCC(=O)C(=O)O [2-Oxoglutaric acid]
13,12.7,O=C(O)C=CC(=O)O [Fumaric Acid]
14,10.4,NC(=O)CC(N)C(=O)O (centres undefined) [Asparagine]
15,16.4,NC(=O)C1=CN(C2OC(COP(=O)(O)OP(=O)(O)OCC3OC(n4cnc5c(N)ncnc54)C(OP(=O)(O)O)C3O)C(O)C2O)C=CC1 (centres undefined) [NADPH]
16,11.5,O=P(O)(O)OCC1OC(O)C(O)C1O (centres undefined) [Pentose-phosphate]
17,10.3,NC(=O)c1ccc[n+](C2OC(COP(=O)(O)OP(=O)(O)OCC3OC(n4cnc5c(N)ncnc54)C(O)C3O)C(O)C2O)c1 (centres undefined) [NAD]

row,LC retention time [min],SMILES
1,9.58,NC(CCC(=O)NC(CS)C(=O)NCC(=O)O)C(=O)O (centres undefined) [GSH]
2,11.6,CC(C)(COP(=O)(O)OP(=O)(O)OCC1OC(n2cnc3c(N)ncnc32)C(O)C1OP(=O)(O)O)C(O)C(=O)NCCC(=O)NCCS (centres undefined) [CoenzymeA]
3,10.4,Nc1ncnc2c1ncn2C1OC(COP(=O)(O)O)C(O)C1O (centres undefined) [AMP]
4,14.6,Nc1ncnc2c1ncn2C1OC(COP(=O)(O)OP(=O)(O)OP(=O)(O)O)C(O)C1O (centres undefined) [ATP]
5,12,Nc1ncnc2c1ncn2C1OC(COP(=O)(O)OP(=O)(O)O)C(O)C1O (centres undefined) [ADP]
6,15.9,O=C(O)CC(C(=O)O)C(O)C(=O)O (centres undefined) [Isocitric acid]
7,9.88,NC(=O)C1=CN(C2OC(COP(=O)(O)OP(=O)(O)OCC3OC(n4cnc5c(N)ncnc54)C(O)C3O)C(O)C2O)C=CC1 (centres undefined) [NADH]
8,2.68,CC(O)C(=O)O (centres undefined) [Lactic Acid]
9,10.2,NC(=O)CCC(N)C(=O)O (centres undefined) [Glutamine]
10,15.1,NC(CCC(=O)NC(CSSCC(NC(=O)CCC(N)C(=O)O)C(=O)NCC(=O)O)C(=O)NCC(=O)O)C(=O)O (centres undefined) [GSSG]
11,11.2,O=C(O)CCC(=O)O [Succinic Acid]
12,15.3,O=C(O)CC(O)(CC(=O)O)C(=O)O [Citric acid]
13,13.7,O=P(O)(O)OCC1OC(O)C(O)C(O)C1O (centres undefined) [Glucose-6-phosphate]
14,11.4,O=C(CO)COP(=O)(O)O [Triose phosphate]
15,18.9,NC(N)=NCCCC(N)C(=O)O (centres undefined) [Arginine]
16,10.3,NC(CC(=O)O)C(=O)O (centres undefined) [Aspartic Acid]
17,10,CC(=O)SCCNC(=O)CCNC(=O)C(O)C(C)(C)COP(=O)(O)OP(=O)(O)OCC1OC(n2cnc3c(N)ncnc32)C(O)C1OP(=O)(O)O (centres undefined) [Acetyl-CoA]
